The values that follow come from patent publication US12415145B2, “Compositions that contain lipophilic plant material and surfactant, and related methods” (priority 2019, dated 2025).

Series [1] can be described thus: Solubility in mineral oil. The note with it: under certain conditions. From the text:
(§1) Another example of a processing step is a step of combining a liquid that contains target compound with anti-solvent. When a target compound is contained in a liquid, e.g., an organic solvent or water (together, “solvents”), an anti-solvent may be used to reduce the capacity of the solvent to contain the target compound, thereby supersaturating the solvent with the target compound. […] The use of an antisolvent can increase the efficiency of purification of a target compound by increasing the saturation of one or more target compounds in a solvent to which the target compounds are added or present. The antisolvent occupies the binding potential of a primary solvent for a target compound, thereby reducing the ability of the primary solvent to contain (e.g., dissolve) the target compound.

Series [2] is described as follows: Thermal stability (decarboxylation). Format: physicochemical. The conditions noted are these: saturated solution of CBDA in Met10u. The method, then: A saturated solution of CBDA in Met10u is prepared at 30C or preferably at 60C or higher, up to 100C or higher but below 130C. At a temperatures that is at least 130C, CBDA begins to lose its carboxylic moiety (decarboxylation) and become CBD. At temperatures above 130C CBD, not CBDA, could be separated if the desired end product is CBD.

The next series is described as follows: Solubility in water. Format: physicochemical. The text has this:
The solubility of cannabinoid target compounds in water can be substantially affected by pH and by temperature. […] At a temperature of 70 degrees Celsius or higher, and pH of 10 or higher, the solubility of CBDA in water is over 20 milligrams per milliliter. Conversely, at a temperature of 4 degrees Celsius or lower and pH 4 of or lower, the solubility of CBDA in water is below 20 micrograms per milliliter. Consequently, a process of washing a plant extract composition that contains CBDA with acidified water having a low temperature can be effective to remove hydrophilic components from the plant extract composition, without removing much CBDA from the plant extract composition.

Series [3] is described as follows: Solubility in high-KB amide surfactant (DMDA / Met10u).
Source text: as §1
As an alternative to an “oiling-out” technique followed by a crystallization step, target compound dissolved in an aqueous solution (at high temperature and alkaline pH) can be separated from the aqueous solution by causing the target compound to directly form a separate solid phase such as crystals within the solution, i.e., to “crystallize out” of the solution, without an “oiling-out” step. Depending on the composition of the aqueous solution, e.g., if the aqueous solution contains a sufficiently high concentration and purity of dissolved target compound, the target compound may be caused to form crystals directly by reducing pH and temperature of the aqueous solution. […] A method as described may include adding surfactant (e.g., ninol CAA) or an oil or a solvent or additive that encourages crystallization or alternatively, oiling out.

`C=C(C)[C@@H]1CCC(C)=C[C@H]1c1c(O)cc(CCCCC)c(C(=O)O)c1O` [CBDA]: in series [1], the “solubility in mineral oil” value was “about 6 mg/ml”. The “temperature at which CBDA begins to lose its carboxylic moiety (decarboxylation) and become CBD” value in series [2] was “at least 130 C”. Also, the “solubility of CBDA in water” value is listed as “below 20 micrograms per milliliter” in the series “Solubility in water” (temperature of 4 degrees Celsius or lower, pH 4 or lower) and “over 20 milligrams per milliliter” in “Solubility in water” (temperature of 70 degrees Celsius or higher, pH of 10 or higher). Moreover, the “solubility of CBDA in Met10u” value was 100% in series [3] (at 60C) and 1% in series [3] (at OC). Besides, the “solubility in DMDA” value in series [3] (at 70C) is reported as “over 1000 mg/ml”.

Consider `C=CCCCCCCCC(=O)N(C)C` [STEPOSOL™ MET-10U, N, N-dimethyl 9-decenamide], for which, in series [3] (water dissolved in surfactant of plant extract composition), the “fraction of dissolved water in the high KB surfactant” value was 15%.
